Source: patent US4826975A, “Fused cycloaliphatic aminoalcohols” (Maggioni-Winthrop S.P.A., priority 1986, dated 1989)
Values belong to the compound of their own block, whether it stands above or below them.

Assays:
Normolipemic rats = assay: hypolipemic activity in normolipemic rats (serum lipids, liver weight); type: in vivo, rat
Procedure: Total cholesterol (CHOL), triglycerides (TG), HDL cholesterol CHOL-HDL) were assayed in serum and the liver was weighed.

toxic adrenaline doses = assay: animal or person; type: in vivo, mice; settings: Mus musculus, po; 2 hrs before 14.5 mg/kg 1-adrenaline i.p., mortality after 24 hrs; read-out: DP50 (50% protective dose)
[1] = oral acute toxicity in male mice; settings: mouse, in vivo
Procedure: The oral acute toxicity in male mice of the invention compound is very low. […]; and higher than 2,000 mg/kg for MG 38005, MG 28401, MG 28414 and MG 28427.

DOCA rats = type: in vivo, rat; settings: 15 mg/kg po
Procedure: Changes in blood pressure (mm Hg) before (T=O) and after treatment (2, 4 and 6 hrs) were measured according to the method of tail artery plethysmography reported in "Spontaneously hypertensive rats (SHR), guidelines for breeding, care and use", SHR Conference, 1976, page 11.
The heart rate was also […] (BP Recorder No. 8006 supplied by Basile, Comerio, Italy). The arterial pressure before the treatment was 210±10 mmHg in SHR and 200±10 in DOCA rats.

SHR = assay: anti-hypertensive activity in spontaneously hypertensive (SH) rats, tail artery plethysmography; settings: 15 mg/kg po
gasping time in mice = assay: anti-hypoxic activity, gasping time after decapitation; type: in vivo
Procedure: The anti-hypoxic activity was determined according to Yasuda et al., Arch. Int. Pharmacodyn. 233, 136, 1978.
Groups of 10 male mice (21-23 g) were treated orally with vehicle (controls) and the invention compounds. After 45 or 90 minutes the animals were decapitated and the gasping time was determined. Table 6 gives the results obtained after administration of some of the invention compounds which display an activity higher than Suloctidil.

platelet aggregation = assay: effect on collagen-stimulated platelet aggregation, ex vivo; type: in vivo; settings: Rattus norvegicus, 0.15 mM/kg oral, 1 hr, collagen 2-4 mcg/ml, read-out: % inhibition, Aggregation rate
Procedure: The effect on platelet aggregation was tested ex vivo according to the method of Minsker, (J. Pharmacol. Exp. Ther. 210, 37, 1979) slightly modified. Groups of 3 rats (280-350 g) were treated orally with vehicle (controls) and compounds (0.15 mM/kg). Blood was collected and pooled from rats of each group 1 hr after treatment and the platelet rich plasma (PRP) was separated by centrifugation.
Platelet aggregation was stimulated with collagen (2-4-mcg/ml) added simultaneously to PRP of control and treated rats. The results were assessed photometrically. Each test was replicated 4 times in groups of 3 animals. Aggregation curves were evaluated in terms of two parameters namely maximum optical density variation (maximum aggregation) and aggregation rate.

[2] = 100 mg/kg p.o., pretreatment 90 min.
[3] = 100 mg/kg p.o., pretreatment 45 min.

Compound: COc1cc2c(cc1OC)[C@H](O)[C@@H](N1CCC(n3c(=O)[nH]c4cc(Cl)ccc43)CC1)C2 (relative stereo) [MG 38131, trans-2-[4-(2-Oxo-5-chloro-1-benzimidazolinyl)-1-piperidinyl]-5,6-dimethoxy-1-indanol]
CHOL, % difference from control (Normolipemic rats; 0.370 mM/kg po × 4 days): ~ 0%
CHOL-HDL, % difference from control (Normolipemic rats; 0.370 mM/kg po × 4 days): +57.2%
Liver weight, % difference from control (Normolipemic rats; 0.370 mM/kg po × 4 days): +6.9%
TG, % difference from control (Normolipemic rats; 0.370 mM/kg po × 4 days): -41.4%

Compound: COc1cc2c(cc1OC)C(=O)C(N1CCC(NC(=O)c3ccccc3)CC1)C2 (stereo not drawn) [MG 38128]
CHOL, % difference from control (Normolipemic rats; 0.370 mM/kg po × 4 days): ~ 0%
CHOL-HDL, % difference from control (Normolipemic rats; 0.370 mM/kg po × 4 days): +46.8%
Liver weight, % difference from control (Normolipemic rats; 0.370 mM/kg po × 4 days): +8.6%
TG, % difference from control (Normolipemic rats; 0.370 mM/kg po × 4 days): -38.8%
effect on TG and CHOL-HDL (in words) (Normolipemic rats; oral, 4 days): decrease TG and increase CHOL-HDL

Compound: COc1cc2c(c(OC)c1OC)C[C@H](N1CCC(NC(=O)c3ccccc3)CC1)[C@@H]2O (relative stereo) [MG 38107, cis-2-(4-Benzamido-1-piperidinyl)-4,5,6-trimethoxy-1-indanol]
ED50 (toxic adrenaline doses): 2.45 mg/kg
CHOL, % difference from control (Normolipemic rats; 0.185 mM/kg po × 4 days): -35.7%
CHOL-HDL, % difference from control (Normolipemic rats; 0.185 mM/kg po × 4 days): -8.5%
Liver weight, % difference from control (Normolipemic rats; 0.185 mM/kg po × 4 days): +5.6%
TG, % difference from control (Normolipemic rats; 0.185 mM/kg po × 4 days): -50.9%
CHOL, % difference from control (Normolipemic rats; 0.370 mM/kg po × 4 days): -30.7%
CHOL-HDL, % difference from control (Normolipemic rats; 0.370 mM/kg po × 4 days): -26.3%
Liver weight, % difference from control (Normolipemic rats; 0.370 mM/kg po × 4 days): 0%
TG, % difference from control (Normolipemic rats; 0.370 mM/kg po × 4 days): -58.5%
hypolipemic effect / activity (in words) (Normolipemic rats; oral): higher than with Clofibrate
effect on CHOL and TG (in words) (Normolipemic rats; oral, 4 days): marked decrease both of CHOL and TG
LD50 [1]: > 1000 mg/kg

Compound: COc1cc2c(cc1OC)[C@@H](O)[C@@H](N1CCC(NC(=O)c3ccccc3)CC1)C2 (relative stereo) [MG 38112, cis 2-(4-Benzamido-1-piperidinyl)-5,6-dimethoxy-1-indanol]
Max. changes in systolic pressure (DOCA rats): -19 mmHg
ED50 (toxic adrenaline doses): 4.4 mg/kg
CHOL, % difference from control (Normolipemic rats; 0.185 mM/kg po × 4 days): -45.2%
CHOL-HDL, % difference from control (Normolipemic rats; 0.185 mM/kg po × 4 days): -18.6%
Liver weight, % difference from control (Normolipemic rats; 0.185 mM/kg po × 4 days): 0%
TG, % difference from control (Normolipemic rats; 0.185 mM/kg po × 4 days): -41.8%
CHOL, % difference from control (Normolipemic rats; 0.370 mM/kg po × 4 days): -52.7%
CHOL-HDL, % difference from control (Normolipemic rats; 0.370 mM/kg po × 4 days): -21.4%
Liver weight, % difference from control (Normolipemic rats; 0.370 mM/kg po × 4 days): +3.9%
TG, % difference from control (Normolipemic rats; 0.370 mM/kg po × 4 days): -58.9%
hypolipemic effect / activity (in words) (Normolipemic rats; oral): higher than with Clofibrate
effect on CHOL and TG (in words) (Normolipemic rats; oral, 4 days): marked decrease both of CHOL and TG
LD50 [1]: > 1000 mg/kg
Max. changes in systolic pressure (SHR): -35 mmHg

Compound: COc1cc2c(c(OC)c1OC)CC[C@H](N1CCC(n3c(=O)[nH]c4cc(Cl)ccc43)CC1)[C@H]2O (relative stereo) [MG 16456, trans-2-[4(2-Oxo-5-chloro-1-benzimidazolinyl)-1-piperidinyl]-5,6,7-trimethoxy-1-tetralol]
ED50 (toxic adrenaline doses): 1.85 mg/kg
Gasping time, % diff. from control (gasping time in mice; [2]): +36.3%

Compound: COc1cc2c(cc1OC)[C@@H](O)[C@H](N1CCN(C(=O)C=Cc3ccccc3)CC1)C2 (relative stereo) [MG 28414, trans 2-[4-(1-Oxo-3-phenyl-2-propenyl)-1-piperazinyl]-5,6-dimethoxy-1-indanol]
inhibition at 0.15 mmol/kg (platelet aggregation): 58%
LD50 [1]: > 2000 mg/kg

Compound: COc1cc2c(cc1OC)[C@@H](O)[C@@H](N1CCN(c3ccccc3OC)CC1)C2 (relative stereo) [MG 38100, cis-2-[4-(2-Methoxyphenyl)-1-piperazinyl]-5,6-dimethoxy-1-indanol]
ED50 (toxic adrenaline doses): 8.5 mg/kg
Gasping time, % diff. from control (gasping time in mice; [3]): +95.7%
LD50 [1]: > 500 mg/kg

Compound: Fc1ccc(C(c2ccc(F)cc2)N2CCN(C/C=C/c3ccccc3)CC2)cc1 [Flunarizine, reference compound]
Gasping time, % diff. from control (gasping time in mice; 50 mg/kg p.o., pretreatment 90 min.): +68.7%

Compound: CCCCCCCCN[C@H]1Cc2cc(OC)c(OC)cc2[C@@H]1O (relative stereo) [MG 28400, trans 5,6-Dimethoxy-2-(n-octylamino)-1-indanol]
Gasping time, % diff. from control (gasping time in mice; [3]): +53.8%
LD50 [1]: > 500 mg/kg

Compound: Cc1ccc(N(CC2=NCCN2)c2cccc(O)c2)cc1 [Phentolamine, reference compound]
ED50 (toxic adrenaline doses): 8 mg/kg

Compound: COc1cc2c(cc1OC)[C@H](O)[C@H](N1CCC(n3c(=O)[nH]c4cc(Cl)ccc43)CC1)C2 (relative stereo) [MG 38121, cis 2-[4-(2-Oxo-5-chloro-1-benzimidazolinyl)-1-piperidinyl]-5,6-dimethoxy-1-indanol]
ED50 (toxic adrenaline doses): 2.75 mg/kg

Compound: COc1cc2c(c(OC)c1OC)C[C@@H](N1CCC(n3c(=O)[nH]c4cc(Cl)ccc43)CC1)[C@H]2O (relative stereo) [MG 38119, cis-2-[4-(2-Oxo-5-chloro-1-benzimidazolinyl)-1-piperidinyl]-4,5,6-trimethoxy-1-indanol]
ED50 (toxic adrenaline doses): 4.4 mg/kg

Compound: COc1cc2c(c(OC)c1OC)C[C@H](N1CCC(n3c(=O)[nH]c4cc(Cl)ccc43)CC1)[C@H]2O (relative stereo) [MG 38122, trans-2-[4-(2-Oxo-5-chloro-1-benzimidazolinyl)-1-piperidinyl]-4,5,6-trimethoxy-1-indanol]
Max. changes in systolic pressure (DOCA rats): -28 mmHg
Max. changes in systolic pressure (SHR): -41.9 mmHg

Compound: CCCCCCCCN[C@@H]1Cc2c(cc(OC)c(OC)c2OC)[C@H]1O (relative stereo) [MG 38006, trans 2-(n-Octylamino)-4,5,6-trimethoxy-1-indanol]
Gasping time, % diff. from control (gasping time in mice; [3]): +33.2%
LD50 [1]: > 1000 mg/kg

Compound: COc1cc2c(c(OC)c1OC)CC[C@H](N1CCC(n3c(=O)[nH]c4ccccc43)CC1)[C@H]2O (relative stereo) [MG 38028, trans 2-[4-(2-Oxo-1-benzimidazolidinilyl)-1-piperidinyl]-5,6,7-trimethoxy-1-tetralol]
ED50 (toxic adrenaline doses): 0.73 mg/kg

Compound: COc1cc2c(c(OC)c1OC)CC(N1CCC(n3c(=O)[nH]c4ccccc43)CC1)C2=O (stereo not drawn) [MG 38005, 2-[4-(2-oxo-1-benzimidazolinyl)-1-piperidinyl]-4,5,6-trimethoxy-1-indanone]
Max. changes in systolic pressure (DOCA rats): -27 mmHg
LD50 [1]: > 2000 mg/kg
Max. changes in systolic pressure (SHR): -42 mmHg

Compound: COc1cc2nc(N3CCN(C(=O)c4ccco4)CC3)nc(N)c2cc1OC [Prazosin, reference compound]
ED50 (toxic adrenaline doses): 0.7 mg/kg

Liver weight, % difference from control (Normolipemic rats; 0.205 mM/kg po × 8 days): +4%
Liver weight, % difference from control (Normolipemic rats; 0.820 mM/kg po × 4 days): ~ 0%
Compound: CC(C)(Sc1cc(C(C)(C)C)c(O)c(C(C)(C)C)c1)Sc1cc(C(C)(C)C)c(O)c(C(C)(C)C)c1 [Probucol, reference compound]
CHOL, % difference from control (Normolipemic rats; 0.205 mM/kg po × 8 days): -25.0%
CHOL-HDL, % difference from control (Normolipemic rats; 0.205 mM/kg po × 8 days): -26%
TG, % difference from control (Normolipemic rats; 0.205 mM/kg po × 8 days): -28.0%
CHOL, % difference from control (Normolipemic rats; 0.820 mM/kg po × 4 days): ~ 0%
CHOL-HDL, % difference from control (Normolipemic rats; 0.820 mM/kg po × 4 days): +18.5%
TG, % difference from control (Normolipemic rats; 0.820 mM/kg po × 4 days): ~ 0%
hypolipemic effect / activity (in words) (Normolipemic rats; oral): moderate and is noted only after prolonged treatment (8 days)

Compound: CCCCCCCCNC(C)C(O)c1ccc(SC(C)C)cc1 (stereo not drawn) [Suloctidil, reference compound]
inhibition at 0.15 mmol/kg (platelet aggregation): 57.5%
Gasping time, % diff. from control (gasping time in mice; [3]): +27.5%
Gasping time, % diff. from control (gasping time in mice; [2]): +11.7%
